Results as given in the SangsterLogP compilation.

Details: pH 7.4

SMILES | logD
N#Cc1cccnc1-c1ccc(C(=O)Nc2ccccc2N)cc1 | 1.58
CC(C)(C)OC(=O)N1CCC(c2ncc(OCc3ccc(S(C)(=O)=O)cc3)cn2)CC1 | 2.8
COc1cc(OC)c(S(=O)(=O)N2c3ccccc3CCC2C)cc1NC(=O)Cc1ccnc(F)c1 (stereo unspecified) | 2.49
C[C@@H](c1ncncc1F)[C@](O)(Cn1cncn1)c1ccc(F)cc1F | 1.7
CCNC(=O)c1cc2c(-n3ccc(C(F)(F)F)n3)c(-c3cncc(C#N)c3)cnc2[nH]1 | 2.62
COc1ccc(N2CCN(C(=O)[C@@H]3CCCC[C@H]3C(=O)NC3(C#N)CC3)CC2)cc1 | 1.74
COc1cc(OC)c(S(=O)(=O)N2c3ccccc3Oc3ccccc32)cc1NC(=O)Cc1ccnc(F)c1 | 3.37
COc1ccc(N(C(=O)c2occc2CO)C(C(=O)NC[C@@H](C)O)c2ccccc2F)c(OC)c1 (stereo partly specified) | 1.37
CS(=O)(=O)c1cccc(Nc2nccc(Nc3c(Cl)ccc4c3OCO4)n2)c1 | 3.13
CCNC(=O)c1cc2c(-n3ccc(C(F)(F)F)n3)c(-c3cc(-c4n[nH]c(=O)o4)cnc3OC)cnc2[nH]1 | 2.91
O=S(=O)(Cc1cc(N2CCOCC2)nc(-c2ccccn2)n1)c1ccccc1 | 1.34
N#CC1(NC(=O)[C@@H]2CCCC[C@H]2C(=O)N2CCN(c3nc4c(s3)COCC4)CC2)CC1 | 1.42
C[C@H]1O[C@@H](n2cnc3c(N)nc(OC4CCCC4)nc32)[C@H](O)[C@H]1Cl | 3.18
CCCN(c1cccnc1)P(=O)(c1ccccc1)c1ccccc1 | 2.6
Cc1ccc(-c2cccc(-c3nn[nH]n3)c2)cc1 | 1.3
CCn1c(=O)c2c(O)cc(=O)oc2c2ccccc21 | 1.13
CC(C)(C)OC(=O)N1CCN(c2ccc(OCc3ccc(S(C)(=O)=O)cc3)cc2)CC1 | 3.9
CC(=O)NC1CN(c2ccc(Nc3ncc(F)c(-c4cnc(C)n4C(C)C)n3)cc2)C1 | 2.76
Cc1cnccc1COc1cnc(N2CCN(C(=O)OC(C)(C)C)CC2)nc1 | 3.8
CC(C)(C)OC(=O)N1CCN(c2ccc(OCc3ccc(S(C)(=O)=O)cc3)cn2)CC1 | 3.2
C[C@@H](Oc1ccc(S(C)(=O)=O)cc1C(=O)N1CCN(c2ncc(C(F)(F)F)cc2F)CC1)C(F)(F)F | 3.49
N#CC1(NC(=O)[C@@H]2CCCC[C@H]2C(=O)N2CCN(c3nc(C(F)(F)F)cs3)CC2)CC1 | 2.4
CS(=O)(=O)C1(c2cc(N3CCOCC3)nc(-c3cccc4[nH]ccc34)n2)CCOCC1 | 2.4
CN1CCC(c2cc(N3CCOCC3)nc(-c3cccc4[nH]ccc34)n2)(S(C)(=O)=O)CC1 | 1.9
C[C@@H]1COCCN1c1cc(C2(S(C)(=O)=O)CC2)nc(-c2cccc3[nH]ccc23)n1 | 2.7
COc1ccc(N2CCN(C(=O)[C@@H]3CCCC[C@H]3C(=O)NC3(C#N)CC3)CC2)cc1OC | 1.4
COCc1ccoc1C(=O)N(c1ccc(OC)cc1OC)C(C(=O)NC[C@@H](C)O)c1ccccc1F (stereo partly specified) | 1.98

Second part, the compound after the results:

logD | SMILES
2.8 | Cc1nn(C)c2ccc(N3CCN(C(=O)[C@@H]4CCCC[C@H]4C(=O)NC4(C#N)CC4)[C@H](C)C3)cc12
2.99 | CCCSc1c(C(=O)NC2CCCCC2)cnn1C
3.01 | CC(=O)c1ncccc1NC(=O)C1CCC(N2C(=O)[C@@H]3[C@@H]4CC[C@@H](C4)[C@@H]3C2=O)CC1 (stereo partly specified)
2.13 | N#CC1(NC(=O)[C@@H]2CCCC[C@H]2C(=O)N2CCc3[nH]c4ncccc4c3C2)CC1
1.78 | C[C@H]1O[C@@H](n2cnc3c(N)nc(OCC4CC45CC5)nc32)[C@H](O)[C@@H]1O (stereo partly specified)
2.99 | Cc1cccc2c3c([nH]c12)CCN(C(=O)[C@@H]1CCCC[C@H]1C(=O)NC1(C#N)CC1)C3
3.03 | N#CC1(NC(=O)[C@@H]2CCCC[C@H]2C(=O)N2CCc3[nH]c4c(F)cccc4c3C2)CC1
3.1 | COc1cc2ncnc(Nc3cccc(Cl)c3F)c2cc1OC1CCN(CC(N)=O)CC1
1.85 | COc1ccc(N2CCN(C(=O)[C@@H]3CCCC[C@H]3C(=O)NC3(C#N)CC3)[C@H](C)C2)cc1OC
1.4 | N#CC1(NC(=O)[C@@H]2CCCC[C@H]2C(=O)N2CCN(c3nc4ncccc4s3)CC2)CC1
2.27 | CCCSc1ncccc1C(=O)NC1[C@@H]2CC3C[C@H]1CC(O)(C3)C2 (stereo partly specified)
2.66 | N#CC1(NC(=O)[C@@H]2CCCC[C@H]2C(=O)N2CCc3[nH]c4ccccc4c3C2)CC1
3.24 | CCCSc1ncccc1C(=O)NC1CCCCC1
1.66 | N#CC1(NC(=O)[C@@H]2CCCC[C@H]2C(=O)N2CCN(c3nc4cnccc4s3)CC2)CC1
